Data as given in the NIST ThermoML archive (doi:10.1016/j.jct.2016.06.012).

Test: xn = mol fraction of the nth substance listed
Conditions: 100 kPa, Liquid; for viscosity: Capillary tube (Ostwald / Ubbelohde) method; for mass density: Vibrating tube method

CCC[n+]1ccn(C)c1C.O=S(=O)([N-]S(=O)(=O)C(F)(F)F)C(F)(F)F + O=C1CCCO1
Conditions | mass density [kg/m3] | viscosity [mPa·s]
293.15 K, x1 = 0.0505 | 1184.15 | 2.47
293.15 K, x1 = 0.1001 | 1226.3 | 3.4
293.15 K, x1 = 0.1492 | 1259.98 | 4.72
293.15 K, x1 = 0.1998 | 1288.55 | 6.2
293.15 K, x1 = 0.3008 | 1332.65 | 9.95
293.15 K, x1 = 0.4031 | 1365.48 | 15.94
293.15 K, x1 = 0.5048 | 1390.46 | 25.66
293.15 K, x1 = 0.6031 | 1409.62 | 38.98
293.15 K, x1 = 0.6973 | 1424.67 | 54.53
293.15 K, x1 = 0.7994 | 1438.25 | 74.49
293.15 K, x1 = 0.8711 | 1446.46 | 89.77
293.15 K, x1 = 1 | 1459.14 | 121.7
298.15 K, x1 = 0.0505 | 1179.18 | 2.26
298.15 K, x1 = 0.1001 | 1221.4 | 3.07
298.15 K, x1 = 0.1492 | 1255.08 | 4.21
298.15 K, x1 = 0.1998 | 1283.68 | 5.44
298.15 K, x1 = 0.3008 | 1327.83 | 8.61
298.15 K, x1 = 0.4031 | 1360.68 | 13.23
298.15 K, x1 = 0.5048 | 1385.67 | 20.56
298.15 K, x1 = 0.6031 | 1404.85 | 30.47
298.15 K, x1 = 0.6973 | 1419.93 | 42.29
298.15 K, x1 = 0.7994 | 1433.53 | 57.35
298.15 K, x1 = 0.8711 | 1441.74 | 69.78
298.15 K, x1 = 1 | 1454.44 | 92.8
303.15 K, x1 = 0.0505 | 1174.28 | 2.1
303.15 K, x1 = 0.1001 | 1216.49 | 2.82
303.15 K, x1 = 0.1492 | 1250.18 | 3.78
303.15 K, x1 = 0.1998 | 1278.79 | 4.88
303.15 K, x1 = 0.3008 | 1322.96 | 7.6
303.15 K, x1 = 0.4031 | 1355.84 | 11.41
303.15 K, x1 = 0.5048 | 1380.86 | 17.18
303.15 K, x1 = 0.6031 | 1400.07 | 24.6
303.15 K, x1 = 0.6973 | 1415.16 | 33.28
303.15 K, x1 = 0.7994 | 1428.78 | 44.5
303.15 K, x1 = 0.8711 | 1437 | 54.92
303.15 K, x1 = 1 | 1449.72 | 72.1
308.15 K, x1 = 0.0505 | 1169.38 | 1.96
308.15 K, x1 = 0.1001 | 1211.58 | 2.56
308.15 K, x1 = 0.1492 | 1245.28 | 3.45
308.15 K, x1 = 0.1998 | 1273.9 | 4.42
308.15 K, x1 = 0.3008 | 1318.1 | 6.83
308.15 K, x1 = 0.4031 | 1351.01 | 9.99
308.15 K, x1 = 0.5048 | 1376.06 | 14.57
308.15 K, x1 = 0.6031 | 1395.28 | 20.33
308.15 K, x1 = 0.6973 | 1410.4 | 27.25
308.15 K, x1 = 0.7994 | 1424.03 | 35.98
308.15 K, x1 = 0.8711 | 1432.26 | 44.23
308.15 K, x1 = 1 | 1445 | 57.76
313.15 K, x1 = 0.0505 | 1164.47 | 1.82
313.15 K, x1 = 0.1001 | 1206.67 | 2.36
313.15 K, x1 = 0.1492 | 1240.38 | 3.18
313.15 K, x1 = 0.1998 | 1269.01 | 4.04
313.15 K, x1 = 0.3008 | 1313.24 | 6.09
313.15 K, x1 = 0.4031 | 1346.18 | 8.71
313.15 K, x1 = 0.5048 | 1371.25 | 12.55
313.15 K, x1 = 0.6031 | 1390.5 | 17.39
313.15 K, x1 = 0.6973 | 1405.64 | 22.52
313.15 K, x1 = 0.7994 | 1419.29 | 30.01
313.15 K, x1 = 0.8711 | 1427.53 | 36.05
313.15 K, x1 = 1 | 1440.28 | 46.53
318.15 K, x1 = 0.0505 | 1159.57 | 1.68
318.15 K, x1 = 0.1001 | 1201.76 | 2.2
318.15 K, x1 = 0.1492 | 1235.48 | 2.97
318.15 K, x1 = 0.1998 | 1264.13 | 3.73
318.15 K, x1 = 0.3008 | 1308.38 | 5.5
318.15 K, x1 = 0.4031 | 1341.35 | 7.79
318.15 K, x1 = 0.5048 | 1366.46 | 10.94
318.15 K, x1 = 0.6031 | 1385.73 | 15.01
318.15 K, x1 = 0.6973 | 1400.88 | 19.07
318.15 K, x1 = 0.7994 | 1414.55 | 24.95
318.15 K, x1 = 0.8711 | 1422.81 | 29.91
318.15 K, x1 = 1 | 1435.57 | 38.4
323.15 K, x1 = 0.0505 | 1154.66 | 1.58
323.15 K, x1 = 0.1001 | 1196.85 | 2.04
323.15 K, x1 = 0.1492 | 1230.58 | 2.73
323.15 K, x1 = 0.1998 | 1259.24 | 3.38
323.15 K, x1 = 0.3008 | 1303.52 | 4.93
323.15 K, x1 = 0.4031 | 1336.53 | 6.9
323.15 K, x1 = 0.5048 | 1361.66 | 9.56
323.15 K, x1 = 0.6031 | 1380.96 | 12.76
323.15 K, x1 = 0.6973 | 1396.13 | 16.4
323.15 K, x1 = 0.7994 | 1409.83 | 20.66
323.15 K, x1 = 0.8711 | 1418.1 | 24.69
323.15 K, x1 = 1 | 1430.87 | 31.89

CCn1cc[n+](C)c1C.O=S(=O)([N-]S(=O)(=O)C(F)(F)F)C(F)(F)F + O=C1CCCO1
Conditions | mass density [kg/m3] | viscosity [mPa·s]
293.15 K, x1 = 0.0493 | 1186.33 | 2.39
293.15 K, x1 = 0.1001 | 1232.87 | 3.16
293.15 K, x1 = 0.1526 | 1271.98 | 4.27
293.15 K, x1 = 0.2001 | 1301.42 | 5.28
293.15 K, x1 = 0.3001 | 1350.26 | 8.11
293.15 K, x1 = 0.4013 | 1387.19 | 12.59
293.15 K, x1 = 0.5004 | 1415.28 | 19.41
293.15 K, x1 = 0.5995 | 1437.76 | 29.23
293.15 K, x1 = 0.6929 | 1455.24 | 40.61
293.15 K, x1 = 0.814 | 1473.91 | 57.8
293.15 K, x1 = 0.9001 | 1485.09 | 71.36
293.15 K, x1 = 1 | 1496.32 | 89.27
298.15 K, x1 = 0.0493 | 1181.34 | 2.2
298.15 K, x1 = 0.1001 | 1227.92 | 2.88
298.15 K, x1 = 0.1526 | 1267.02 | 3.89
298.15 K, x1 = 0.2001 | 1296.47 | 4.75
298.15 K, x1 = 0.3001 | 1345.33 | 7.21
298.15 K, x1 = 0.4013 | 1382.26 | 10.79
298.15 K, x1 = 0.5004 | 1410.36 | 16.23
298.15 K, x1 = 0.5995 | 1432.85 | 23.73
298.15 K, x1 = 0.6929 | 1450.35 | 32.36
298.15 K, x1 = 0.814 | 1469.03 | 45.73
298.15 K, x1 = 0.9001 | 1480.21 | 56.03
298.15 K, x1 = 1 | 1491.47 | 70.77
303.15 K, x1 = 0.0493 | 1176.42 | 2.02
303.15 K, x1 = 0.1001 | 1222.97 | 2.64
303.15 K, x1 = 0.1526 | 1262.07 | 3.55
303.15 K, x1 = 0.2001 | 1291.53 | 4.31
303.15 K, x1 = 0.3001 | 1340.4 | 6.49
303.15 K, x1 = 0.4013 | 1377.35 | 9.66
303.15 K, x1 = 0.5004 | 1405.48 | 13.87
303.15 K, x1 = 0.5995 | 1427.99 | 19.69
303.15 K, x1 = 0.6929 | 1445.51 | 26.32
303.15 K, x1 = 0.814 | 1464.21 | 36.61
303.15 K, x1 = 0.9001 | 1475.4 | 45.12
303.15 K, x1 = 1 | 1486.67 | 57.02
308.15 K, x1 = 0.0493 | 1171.5 | 1.87
308.15 K, x1 = 0.1001 | 1218.03 | 2.42
308.15 K, x1 = 0.1526 | 1257.12 | 3.23
308.15 K, x1 = 0.2001 | 1286.58 | 3.92
308.15 K, x1 = 0.3001 | 1335.47 | 5.84
308.15 K, x1 = 0.4013 | 1372.45 | 8.44
308.15 K, x1 = 0.5004 | 1400.6 | 11.97
308.15 K, x1 = 0.5995 | 1423.13 | 16.7
308.15 K, x1 = 0.6929 | 1440.66 | 21.94
308.15 K, x1 = 0.814 | 1459.39 | 30.04
308.15 K, x1 = 0.9001 | 1470.6 | 36.72
308.15 K, x1 = 1 | 1481.87 | 46.6
313.15 K, x1 = 0.0493 | 1166.58 | 1.74
313.15 K, x1 = 0.1001 | 1213.09 | 2.24
313.15 K, x1 = 0.1526 | 1252.18 | 2.97
313.15 K, x1 = 0.2001 | 1281.64 | 3.59
313.15 K, x1 = 0.3001 | 1330.56 | 5.24
313.15 K, x1 = 0.4013 | 1367.56 | 7.44
313.15 K, x1 = 0.5004 | 1395.73 | 10.46
313.15 K, x1 = 0.5995 | 1418.28 | 14.19
313.15 K, x1 = 0.6929 | 1435.84 | 18.31
313.15 K, x1 = 0.814 | 1454.58 | 24.98
313.15 K, x1 = 0.9001 | 1465.81 | 30.3
313.15 K, x1 = 1 | 1477.09 | 38.62
318.15 K, x1 = 0.0493 | 1161.65 | 1.62
318.15 K, x1 = 0.1001 | 1208.15 | 2.07
318.15 K, x1 = 0.1526 | 1247.24 | 2.72
318.15 K, x1 = 0.2001 | 1276.71 | 3.27
318.15 K, x1 = 0.3001 | 1325.64 | 4.7
318.15 K, x1 = 0.4013 | 1362.67 | 6.63
318.15 K, x1 = 0.5004 | 1390.87 | 9.21
318.15 K, x1 = 0.5995 | 1413.44 | 12.26
318.15 K, x1 = 0.6929 | 1431.02 | 15.7
318.15 K, x1 = 0.814 | 1449.79 | 21.08
318.15 K, x1 = 0.9001 | 1461.03 | 25.54
318.15 K, x1 = 1 | 1472.32 | 32.33
323.15 K, x1 = 0.0493 | 1156.72 | 1.52
323.15 K, x1 = 0.1001 | 1203.21 | 1.9
323.15 K, x1 = 0.1526 | 1242.31 | 2.5
323.15 K, x1 = 0.2001 | 1271.78 | 3.02
323.15 K, x1 = 0.3001 | 1320.73 | 4.29
323.15 K, x1 = 0.4013 | 1357.79 | 6.05
323.15 K, x1 = 0.5004 | 1386.01 | 8.19
323.15 K, x1 = 0.5995 | 1408.61 | 10.68
323.15 K, x1 = 0.6929 | 1426.21 | 13.74
323.15 K, x1 = 0.814 | 1445.01 | 18.23
323.15 K, x1 = 0.9001 | 1456.26 | 21.94
323.15 K, x1 = 1 | 1467.56 | 27.06
